The source of these data is patent publication US20260199535A1, “PCTA derivatives, conjugates thereof and uses thereof” (NOVARTIS AG, priority 2022, published 2026).

Read-outs that look alike come from different tables or passages of the source.

For data set [1] the following is noted: crosslinker bond, 12-membered ring, CH3CN, 60.0 °C.
Data set [2] can be described thus: Buffer stability of Example 17 radiolabeled with ^68GaCl3. To be noted: ^68Ga-labeled, sodium acetate/acetic acid reaction buffer, t=4 hours; RCP at t=0 75%. The class given is physicochemical. As to the method:
A solution of sodium acetate trihydrate in water 1.5 M (740.0 μL), acetic acid (260.0 μL) and (((1S)-5-((2R)-2-amino-3-((2,5-dioxo-1-(4-(3,6,9-tris(carboxymethyl)-3,6,9-triaza-1(2,6)-pyridinacyclodecaphane-4-yl)butyl)pyrrolidin-3-yl)thio)propanamido)-1-carboxypentyl)carbamoyl)-L-glutamic acid (2 mM; 1.907 mg/mL; […]) were added to a 8 mL glass V-vial. This vial was sealed, the vacuum needle and the ^68Ga/HCl 0.1M needle were connected to the vial. The gallium generator was eluted to the reaction vial (approximately 260 MBq [^68Ga]GaCl3 in HCl 0.1M, 1.1 mL). The vacuum needle and the ^68Ga/HCl 0.1M needle were disconnected from the reaction vial. After shaking (600 rpm) at 45° C. for 30 min, the reaction mixture was left cooling down for few minutes. The radiochemical purity and stability were assessed using HPLC-1 conditions: Waters; column: Phenomenex Luna; particle size 2.5 μm; size: 4.6×100 mm; flow rate: 1 mL/min; mobile phase A: H2O+0.1% TFA and B: CH3CN; gradient: 10 to 80% solvent B in 9 min. RCP at t=0, 75% and stability t=4 hours, 74%.

Data set [3] is described as follows: Buffer stability of Example 17 radiolabeled with ^177LuCl3. In kind it is physicochemical. To be noted: ^177Lu-labeled, formulation diluted with PBS, RCP at t=0 93%. As to the method: To a mixture of sodium acetate in water (35.0 μL, 1.5 M), ascorbic acid in H2O (35.00 μL, 0.04 M), ethanol (58.5 μL) and acetic acid (1.5 μL) was added [^177Lu]LuCl3 ([…], 0.04 M HCl, 58.2 MBq). A solution of (((1S)-5-((2R)-2-amino-3-((2,5-dioxo-1-(4-(3,6,9-tris(carboxymethyl)-3,6,9-triaza-1(2,6)-pyridinacyclodecaphane-4-yl)butyl)pyrrolidin-3-yl)thio)propanamido)-1-carboxypentyl)carbamoyl)-L-glutamic acid (7.9 μL) of a 0.2 mM in water was added. After shaking (450 rpm) at 95° C. for 15 min, the reaction mixture was left cooling down for few minutes. The solution was diluted with 385 μl of PBS to keep the final formulation with EtOH below 9%. The radiochemical purity and stability were assessed using HPLC-1 conditions: Waters; column: phenomenex Luna; particle size 2.5 μm; size: 4.6×100 mm; flow rate: 1 mL/min; mobile phase A: H2O+0.1% TFA and B: CH3CN; gradient: 10 to 80% solvent B in 9 min.

The conditions of data set [4]: crosslinker bond; 12-membered ring; intermediate G (1 eq)/DIPEA (5 eq); CH3CN; 15.6 mM; 60.0 °C.

In data set [1] (the molecule shown is the open-chain precursor, methyl 2,6-bis(bromomethyl)isonicotinate (1 eq)/DIPEA (5 eq), 20.9 mM), `CC(C)(C)OC(=O)C[C@@H](NCCOCCN[C@H](CC(=O)OC(C)(C)C)c1ccccn1)C(=O)OC(C)(C)C` had a ring closure, isolated yield of 48.7%. `N[C@@H](CSC1CC(=O)N(CCCCC2CN(CC(=O)O)CCN(CC(=O)O)Cc3cccc(n3)CN2CC(=O)O)C1=O)C(=O)NCCCC[C@H](NC(=O)N[C@@H](CCC(=O)O)C(=O)O)C(=O)O` (stereo partly drawn) [Example 17, (((1S)-5-((2R)-2-amino-3-((2,5-dioxo-1-(4-(3,6,9-tris(carboxymethyl)-3,6,9-triaza-1(2,6)-pyridinacyclodecaphane-4-yl)butyl)pyrrolidin-3-yl)thio)propanamido)-1-carboxypentyl)carbamoyl)-L-glutamic acid]: the “stability (radiochemical purity by HPLC)” value came out at 74% in data set [2], 94% in data set [3] (t=4 hours), 95% in data set [3] (t=8 hours) and 94% in data set [3] (t=24 hours). Compound “Tetra-tert-butyl 2,2′-(1^4-(3-((tert-butoxycarbonyl)amino)propoxy)-3,7-diaza-1(2,6)-pyridina-5(1,3)-benzenacyclooctaphane-3,7-diyl)(2R,2′R)-disuccinate” registered a ring closure, isolated yield in data set [1] (2,6-bis(bromomethyl)pyridine (1 eq)/DIPEA (5 eq), 32.6 mM) of 55.3%.

As for “Tetra-tert-butyl 2,2′-(1^4-(methoxycarbonyl)-6-oxa-3,9-diaza-1(2,6)-pyridinacyclodecaphane-3,9-diyl)(2R,2′R)-disuccinate”, the ring closure, isolated yield in data set [1] (methyl 2,6-bis(bromomethyl)isonicotinate (1 eq)/DIPEA (5 eq), 17.9 mM) came to 57.1%. As for “Tri-tert-butyl 2,2′,2″-(1^4-(3-((tert-butoxycarbonyl)amino)propoxy)-3,6,9-triaza-1(2,6)-pyridinacyclodecaphane-3,6,9-triyl)(2S,2′S,2″S)-tripropionate”, the ring closure, yield after HPLC in data set [4] amounted to 52%.
